Test results reported in PubChem BioAssay (NCI).
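1) Cells in 96-well plates. 2) Compound, 48 h, 5 concentrations. 3) Linear interpolation between surrounding doses. 4) Unreached endpoint = highest concentration. At the TGI there is no net growth.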

What was measured:
Test in all cases: NCI anticancer screen, dose series, 48 h
A549 NSCLC = test system: A549 NSCLC
COLO 205 colon = test system: COLO 205 colon
HCT-15 colon = test system: HCT-15 colon
HOP-62 NSCLC = test system: HOP-62 NSCLC
HT29 colon = test system: HT29 colon
LOX IMVI melanoma = test system: LOX IMVI melanoma
M14 melanoma = test system: M14 melanoma
MDA-N = test system: MDA-N
OVCAR-3 ovarian = test system: OVCAR-3 ovarian
PC-3 prostate = test system: PC-3 prostate
RPMI-8226 leukemia = test system: RPMI-8226 leukemia
SF-295 CNS = test system: SF-295 CNS
SF-539 CNS = test system: SF-539 CNS
SNB-19 CNS = test system: SNB-19 CNS
SNB-75 CNS = test system: SNB-75 CNS
SR leukemia = test system: SR leukemia
TK-10 renal = test system: TK-10 renal
HCC-2998 colon = test system: HCC-2998 colon

SMILES	TGI (A549 NSCLC) [µM]	TGI (COLO 205 colon) [µM]	TGI (HCT-15 colon) [µM]	TGI (HOP-62 NSCLC) [µM]	TGI (HT29 colon) [µM]	TGI (LOX IMVI melanoma) [µM]	TGI (M14 melanoma) [µM]	TGI (MDA-N) [µM]	TGI (OVCAR-3 ovarian) [µM]	TGI (PC-3 prostate) [µM]	TGI (RPMI-8226 leukemia) [µM]	TGI (SF-295 CNS) [µM]	TGI (SF-539 CNS) [µM]	TGI (SNB-19 CNS) [µM]	TGI (SNB-75 CNS) [µM]	TGI (SR leukemia) [µM]	TGI (TK-10 renal) [µM]	TGI (HCC-2998 colon) [µM]
CC1=C2C3=C(C)C(=O)C(C)(C)CC[C@@]3(C)[C@]2(C)CCC(C)(C)C1=O	> 100	> 100	> 100	> 100	> 100	> 100	> 100	> 100	> 100	> 100	> 100	> 100	> 100	> 100	> 100	> 100	> 100	
O=C(CC(=O)n1nc(-c2ccccc2)c(N=Nc2ccc(Cl)cc2)c1-c1ccccc1)Nc1cccc(Cl)c1	> 100	> 100	> 100	> 100	> 100		> 100	> 100		> 100	> 100			> 100	> 100	> 100	> 100	> 100
CCC1c2[nH]c3ccccc3c2C[C@H]2C(=O)NC(CCC(=O)OC(C)(C)C)C(=O)N12 (stereo partly drawn)	> 100	72.3	> 100	> 100	> 100	> 100	> 100	> 100	> 100	> 100	97.9	> 100		> 100		> 100	> 100	
CNC(=O)N1CCN(C(=O)NC)CCN(C(=O)NC)CC1	> 100	> 100	> 100	> 100	> 100	> 100	> 100	> 100		> 100	> 100	> 100		> 100	> 100	> 100	> 100	> 100
CCOC(=O)NC(Nc1ccc(S(=O)(=O)Nc2ncccn2)cc1)(C(=O)OCC)C(F)(F)F (stereo not drawn)	> 100	> 100	> 100	> 100	> 100	> 100	> 100	> 100	> 100	> 100	> 100	> 100	> 100	> 100	> 100	> 100		> 100
CC/C(=N/O)c1ccc(Br)s1	> 100	> 100	> 100	> 100	> 100	> 100	> 100	> 100	> 100	> 100		> 100	> 100	> 100	> 100	> 100	> 100	> 100
O=C(CCc1ccc(O)cc1)NCCc1ccc(O)cc1	> 100	> 100	> 100	> 100	> 100	> 100	> 100	> 100	> 100	> 100		> 100	> 100	> 100		> 100	> 100	> 100
Oc1cc(O)c2c(c1)O[C@H](c1cc(O)c(O)c(O)c1)[C@H](O)C2	76.7	33.2	> 100	37.3		77.6	> 100	40.9	> 100	42.9	31.7	83.7	48.7	> 100	98	27.6		
CCOC(=O)N/N=C(/N)Cc1ccccc1	> 100	> 100	> 100	> 100		> 100	> 100	> 100	> 100	> 100		> 100	> 100	> 100	> 100	> 100	> 100	> 100
C=C1CC[C@@]2(OC1)OC1C[C@H]3[C@@H]4CC=C5C[C@@H](O)CC(OC6OCC(OC(=O)[C@@H](O)[C@@H](C)CC)C(OC(C)=O)C6OC6OC(C)C(O)C(O)C6O)[C@]5(C)[C@H]4CC[C@]3(C)C1[C@@H]2C (stereo partly drawn)	4.73	4.5	3.67		> 10	3.67	4.45	3.51	3.77	3.16	4.89	3.27	5.21	3.87	4.84	4.4	3.87	2.96
O=C1C(Br)=CC2(C=C1Br)CCN=c1c(O)c3c(c(O)c12)=NC=N3	37.9	37.6	29.1	31.1	29.2	27.1	30.6	3.34	29.1	> 100	50.9	30	32.1		30.5	> 100	59	46.3
CSc1nc(Cl)c2c(n1)Sc1nc3cc4c(cc3n1C2O)OCO4 (stereo not drawn)	> 47.9	0.686	> 100	16.7	7.55	0.746	> 43.9	36.1	7.3	> 60.3	> 20.8	> 83.2	0.327	> 100	> 100		> 100	> 60.9
Nc1ccc(C(=O)Nn2c(-c3ccccc3)nc3ccccc3c2=O)cc1	> 100	> 100		> 100	> 100	> 100	> 100	> 100	> 100	> 100	> 100	> 100	> 100	> 100	> 100	> 100	> 100	> 100
CC(=O)NNc1nc(C)c(C(/C=C/c2cccc([N+](=O)[O-])c2)=N/NC(=S)NN)s1	> 100	> 100	> 100	> 100	> 100	> 100	> 100	> 100	> 100	> 100	> 100	> 100	> 100	> 100	> 100		> 100	> 100
Cc1nnc([C@@]2(C)CC[C@H]3[C@@H](CC=C4C[C@@H](O)CC[C@@]43C)[C@@H]2CC#N)o1	> 100	> 100	> 100	> 100	> 100	> 100	> 100	> 100	> 100	> 100	> 100	> 100	> 100	> 100	> 100	> 100	> 100	
CC(C(=O)N1c2ccccc2Sc2ccccc21)N1c2ccccc2Sc2ccccc21 (stereo not drawn)	> 100	> 100	> 100	> 100	> 100	> 100	> 100	> 100	> 100	> 100	> 100	> 100	> 100	> 100	> 100	> 100	> 100	
O=C1SCC(O)=C1/C=N/Nc1nc2ccccc2o1	95.4	81	> 100	> 100	83.7	> 100	57.5	> 100	65.5	88.6		72.4	40.8	> 100		> 100	92.8	> 100
Clc1cccc(Cl)c1C1SCC2=Nc3ccccc3CN21 (stereo not drawn)	56.5	27	> 100	48.9		41.1	48.1	> 100	29.5	52.4	> 100	33.8	32.9	25.8	> 100	> 100	> 100	> 100
NC(N)=N/N=C/c1c(Cl)nc2sccn12	93.8	33.5		66.8	31.6	39.6	34.5	> 100	90.9	> 100	53.1	44.1	37.8	> 100	> 100	54	> 100	34
CC(=O)O[C@@H]1C=C(C)[C@H](CBr)O[C@@]2(C)CC[C@H](Br)C(C)(C)[C@H]12	> 100	> 100	> 100	> 100	> 100	> 100	> 100	> 100		> 100	> 100	> 100	> 100	> 100	> 100	> 100	> 100	> 100
O=C(Nc1ccc2nc(-c3ccccc3)cn2c1)Oc1ccccc1	> 100	> 100	> 100	> 100	> 100	> 100	> 100	41.9	> 100	> 100		> 100		> 100	13.1	> 100	> 100	> 100
COc1ccc2c(c1)OCc1c-2oc2ccccc2c1=O	> 100	> 100	> 100	> 100	> 100	> 100	> 100	> 100	> 100	> 100	> 100	> 100	> 100		92.4	> 100	> 100	> 100
COC12C=CC(CC1)C(C)(C)C2=O (stereo not drawn)	> 100	> 100	> 100	> 100	> 100		> 100	> 100	> 100	> 100	> 100	> 100	> 100	> 100	> 100	> 100	> 100	> 100
CCN(CC)Cc1cc(Nc2ccnc3ccc4c(nnn4C)c23)ccc1O	27	32.4	13.5	19	> 100	29.9	28.7	27	39.9	20.8		25.9	18.4	21.3	19.9	18.6	76	10.7
S=C(/N=c1/sc(Nc2ccccc2)nc2sc3c(c12)CCCC3)Nc1ccccc1		> 62.5	> 62.5	> 62.5	> 62.5	> 62.5		> 62.5	> 62.5	> 62.5	> 62.5			> 62.5		> 62.5	> 62.5	> 62.5
Nc1nc(Cl)cc(NCC2(CO)COC2)n1	> 100	> 100	> 100	> 100	> 100	> 100		> 100	> 100	> 100	> 100	> 100	> 100		> 100	> 100	> 100	> 100
COC(=O)c1ccc2c(c1)CC1(C2)Cc2cc3c(cc2C1=O)CCC3 (stereo not drawn)	> 100	38.7	> 100	> 100	34.7	94.2	42.2	61.1	87.8	> 100	38.7	> 100	> 100	> 100	83.6		> 100	> 100
S=C1Cc2c([nH]c3ccccc23)-c2ccccc2N1	> 100	> 100		62.3	> 100	> 100	> 100	> 100	> 100	> 100	> 100	> 100	> 100	> 100	66.7	> 100	52.9	
